Patent publication US8193185B2, “Use of tryptanthrin compounds for immune potentiation” (Novartis Vaccines and Diagnostics, Inc., priority 2003, dated 2012)

Tested on: human peripheral blood mononuclear cells (PBMC)
Test: HTS assay for small molecule immune potentiators: TNF-a production by human PBMC (sandwich ELISA)
Assay type: cell-based
Conditions: human PBMC 500,000 per mL, 18 h at 37° C., secreted TNF by sandwich ELISA
Excerpt: Candidate small molecule immune potentiators can be identified in vitro. Compounds are screened in vitro for their ability to stimulate human peripheral blood mononuclear cells to produce cytokines (e.g. TNF-a and IL-12 p40). Apoptosis inducing small molecules may be identified having this activity. These small molecule immunopotentiators have potential utility as adjuvants and immunotherapeutics.
In an assay procedure (High Throughput Screening (HTS)) for small molecule immune potentiators (SMIPs), human peripheral blood mononuclear cells (PBMC), 500,000 per mL in RPMI 1640 medium with 10% FCS, are distributed in 96 well plates (100,000 per well) already containing 5 μM of compound in DMSO. The PBMCs are incubated for 18 h at 37° C. in 5% CO2. Their ability to produce cytokines in response to the small molecule compounds is determined using a modified sandwich ELISA.
Briefly supernatants from the PBMC cultures are assayed for secreted TNF using a primary plate bound antibody for capture followed by a secondary biotinylated anti-TNF antibody forming a sandwich. The biotinylated second antibody is then detected using streptavidin-Europium and the amount of bound europium is determined by time resolved fluorescence. Compounds are screened for their TNF inducing activity that is measured in the assay as increased Europim counts over cells incubated in RPMI medium alone. “Hits” are selected based on their TNF-inducing activity relative to an optimal dose of lipopolysaccaride LPS (1 μg/ml), a strong TNF inducer. The robustness of the assay and low backgrounds have allowed for the routine selection of hits with ˜10% of LPS activity that is normally between 5-10× background (cells alone). Selected hits are then subjected to confirmation for their ability to induce cytokines from multiple donors at decreasing concentrations. Those compounds with consistent activity at or below 5 μM are considered confirmed for the purposes of this assay. The assay is readily modified for screening for compounds effective at higher or lower concentrations.

For `O=C1c2cc([N+](=O)[O-])ccc2-n2c1nc1ccccc1c2=O` [Compound 1001, 8-nitroindolo[2,1-b]quinazoline-6,12-dione], which minimal effective concentration is on record?
Its minimal effective concentration is ≤ 1.5 µM.

How did the minimal effective concentration turn out when `O=C1c2cc(F)ccc2-n2c1nc1ccc(Cl)cc1c2=O` [Compound 1002, 2-chloro-8-fluoroindolo[2,1-b]quinazoline-6,12-dione] was run?
The minimal effective concentration was ≥ 5 µM.

For `O=C1c2cc(F)ccc2-n2c1nc1ccc(F)cc1c2=O` [Compound 1003, 2,8-difluoroindolo[2,1-b]quinazoline-6,12-dione], which minimal effective concentration is on record?
Its minimal effective concentration is ≥ 5 µM.

For `O=C1c2cc(F)ccc2-n2c1nc1cc(F)ccc1c2=O` [Compound 1004, 3,8-difluoroindolo[2,1-b]quinazoline-6,12-dione], which minimal effective concentration is on record?
Its minimal effective concentration is ≤ 1.5 µM.

`O=C1c2cccc(F)c2-n2c1nc1ccccc1c2=O` [Compound 1005, 10-fluoroindolo[2,1-b]quinazoline-6,12-dione] was tested. Which minimal effective concentration did it give?
The minimal effective concentration was ≤ 1.5 µM.

With `O=C1c2cc(F)ccc2-n2c1nc1cccc(F)c1c2=O` [Compound 1006, 1,8-difluoroindolo[2,1-b]quinazoline-6,12-dione] as the compound, how does the minimal effective concentration read?
The minimal effective concentration was ≤ 1.5 µM.

Which minimal effective concentration does the source give for `Cc1cccc2nc3n(c(=O)c12)-c1ccc(F)cc1C3=O` [Compound 1007, 8-fluoro-1-methylindolo[2,1-b]quinazoline-6,12-dione] here?
Its minimal effective concentration is ≤ 1.5 µM.

How did the minimal effective concentration turn out when `O=C1c2cc(F)cc(F)c2-n2c1nc1ccccc1c2=O` [Compound 1008, 8,10-difluoroindolo[2,1-b]quinazoline-6,12-dione] was run?
Its minimal effective concentration is ≤ 1.5 µM.

Which minimal effective concentration does the source give for `O=C1c2cc(F)ccc2-n2c1nc1c(F)cccc1c2=O` [Compound 1009, 4,8-difluoroindolo[2,1-b]quinazoline-6,12-dione] here?
Its minimal effective concentration is ≥ 5 µM.

With `O=C1c2cc(I)ccc2-n2c1nc1c(Br)cc(Br)cc1c2=O` [Compound 1010, 2,4-dibromo-8-iodoindolo[2,1-b]quinazoline-6,12-dione] as the compound, how does the minimal effective concentration read?
The minimal effective concentration was ≥ 5 µM.

`Cc1cc(Cl)cc2c1-n1c(nc3ccccc3c1=O)C2=O` [Compound 1011, 8-chloro-10-methylindolo[2,1-b]quinazoline-6,12-dione] was tested. Which minimal effective concentration did it give?
Its minimal effective concentration is ≥ 5 µM.

With `CC(C)(C)OC(=O)N1CCN(c2cc3nc4n(c(=O)c3cc2F)-c2ccc(I)cc2C4=O)CC1` [Compound 1012, 1,1-dimethylethyl 4-(2-fluoro-8-iodo-6,12-dioxo-6,12-dihydroindolo[2,1-b]quinazolin-3-yl)piperazine-1-carboxylate] as the compound, how does the minimal effective concentration read?
Its minimal effective concentration is ≥ 5 µM.

For `O=C1c2cc(I)ccc2-n2c1nc1c(Br)cc(Br)c(F)c1c2=O` [Compound 1013, 2,4-dibromo-1-fluoro-8-iodoindolo[2,1-b]quinazoline-6,12-dione], which minimal effective concentration is on record?
The minimal effective concentration was ≤ 1.5 µM.

With `O=C1c2cc(I)ccc2-n2c1nc1c(Br)cc(Br)c(Cl)c1c2=O` [Compound 1014, 2,4-dibromo-1-chloro-8-iodoindolo[2,1-b]quinazoline-6,12-dione] as the compound, how does the minimal effective concentration read?
Its minimal effective concentration is ≤ 1.5 µM.

Which minimal effective concentration does the source give for `O=C1c2ccccc2-n2c1nc1c(Br)cc(Br)c(F)c1c2=O` [Compound 1015, 2,4-dibromo-1-fluoroindolo[2,1-b]quinazoline-6,12-dione] here?
Its minimal effective concentration is ≤ 1.5 µM.

Which minimal effective concentration does the source give for `O=C1c2cc(Cl)ccc2-n2c1nc1ccc(I)cc1c2=O` [Compound 1016, 8-chloro-2-iodoindolo[2,1-b]quinazoline-6,12-dione] here?
The minimal effective concentration was ≤ 1.5 µM.

With `O=C1c2cc(Cl)ccc2-n2c1nc1cc(F)ccc1c2=O` [Compound 1017, 8-chloro-3-fluoroindolo[2,1-b]quinazoline-6,12-dione] as the compound, how does the minimal effective concentration read?
Its minimal effective concentration is ≤ 1.5 µM.

How did the minimal effective concentration turn out when `O=C1c2cc(Cl)ccc2-n2c1nc1cc(N3CCCCC3)ccc1c2=O` [Compound 1018, 8-chloro-3-piperidin-1-ylindolo[2,1-b]quinazoline-6,12-dione] was run?
Its minimal effective concentration is ≥ 5 µM.

With `O=C1c2cc(F)ccc2-n2c1nc1c(O)cccc1c2=O` [Compound 1019, 8-fluoro-4-hydroxyindolo[2,1-b]quinazoline-6,12-dione] as the compound, how does the minimal effective concentration read?
The minimal effective concentration was ≤ 1.5 µM.

How did the minimal effective concentration turn out when `CCNC(=O)c1ccc2c(c1)C(=O)c1nc3c(OC)cccc3c(=O)n1-2` [Compound 1020, N-ethyl-4-(methyloxy)-6,12-dioxo-6,12-dihydroindolo[2,1-b]quinazoline-8-carboxamide] was run?
The minimal effective concentration was ≤ 1.5 µM.

For `O=C1c2cc(OC(F)(F)F)ccc2-n2c1nc1ccccc1c2=O` [Compound 1021, 8-[(trifluoromethyl)oxy]indol o[2,1-b]quinazoline-6,12-dione], which minimal effective concentration is on record?
The minimal effective concentration was ≥ 5 µM.

With `O=C1c2cc(OC(F)(F)F)ccc2-n2c1nc1cc(F)ccc1c2=O` [Compound 1022, 3-fluoro-8-[(trifluoromethyl)oxy]indol o[2,1-b]quinazoline-6,12-dione] as the compound, how does the minimal effective concentration read?
Its minimal effective concentration is ≤ 1.5 µM.

With `O=C1c2cc(OC(F)(F)F)ccc2-n2c1nc1cc(SCCO)ccc1c2=O` [Compound 1023, 3-[(2-hydroxyethyl)thio]-8-[(trifluoromethyl)oxy]indol o[2,1-b]quinazoline-6,12-dione] as the compound, how does the minimal effective concentration read?
The minimal effective concentration was ≤ 1.5 µM.

Which minimal effective concentration does the source give for `O=C1c2ccccc2-n2c1nc1ncccc1c2=O` [Compound 1024, pyrido[2′,3′:4,5]pyrimido[1,2-a]indole-5,11-dione] here?
Its minimal effective concentration is ≤ 1.5 µM.

With `O=C1c2cc(F)ccc2-n2c1nc1ncccc1c2=O` [Compound 1025, 9-fluoropyrido[2′,3′:4,5]pyri-mido[1,2-a]indole-5,11-dione] as the compound, how does the minimal effective concentration read?
The minimal effective concentration was ≤ 1.5 µM.

For `O=C1c2cc(Br)ccc2-n2c1nc1ncccc1c2=O` [Compound 1026, 9-bromopyrido[2′,3′:4,5]pyri-mido[1,2-a]indole-5,11-dione], which minimal effective concentration is on record?
Its minimal effective concentration is ≤ 1.5 µM.

With `O=C1c2cc(Cl)ccc2-n2c1nc1ncccc1c2=O` [Compound 1027, 9-chloropyrido[2′,3′:4,5]pyri-mido[1,2-a]indole-5,11-dione] as the compound, how does the minimal effective concentration read?
Its minimal effective concentration is ≤ 1.5 µM.

With `O=C1c2cc(I)ccc2-n2c1nc1ncccc1c2=O` [Compound 1028, 9-iodopyrido[2′,3′:4,5]pyrimi-do[1,2-a]indole-5,11-dione] as the compound, how does the minimal effective concentration read?
The minimal effective concentration was ≤ 1.5 µM.

With `CCOC(=O)c1ccc2c(c1)C(=O)c1nc3ncccc3c(=O)n1-2` [Compound 1029, ethyl 5,11-dioxo-5,11-dihydropyrido[2′,3′:4,5]py-rimido[1,2-a]indole-9-carboxylate] as the compound, how does the minimal effective concentration read?
Its minimal effective concentration is ≤ 1.5 µM.

With `CCCCCCCCNS(=O)(=O)c1ccc2c(c1)C(=O)c1nc3ncccc3c(=O)n1-2` [Compound 1030, N-octyl-5,11-dioxo-5,11-dihydropyrido[2′,3′:4,5]py-rimido[1,2-a]indole-9-sulfonamide] as the compound, how does the minimal effective concentration read?
The minimal effective concentration was ≤ 1.5 µM.

Which minimal effective concentration does the source give for `O=C1c2c(cccc2C(F)(F)F)-n2c1nc1ncccc1c2=O` [Compound 1031, 10-(trifluoromethyl)pyrido[2′, 3′:4,5]pyrimido[1,2-a]indole-5,11-dione] here?
The minimal effective concentration was ≤ 1.5 µM.

Which minimal effective concentration does the source give for `CCOP(=O)(CCCC/C=C/c1ccc2c(c1)C(=O)c1nc3ncccc3c(=O)n1-2)OCC` [Compound 1032, diethyl (5E)-6-(5,11-dioxo-5,11-dihydropyrido[2′,3′:4,5]py-rimido[1,2-a]indol-9-yl)hex-5-enylphosphonate] here?
The minimal effective concentration was ≥ 5 µM.

Which minimal effective concentration does the source give for `CC(=O)OCCCC/C=C/c1ccc2c(c1)C(=O)c1nc3ncccc3c(=O)n1-2` [Compound 1033, (5E)-6-(5,11-dioxo-5,11-dihydropyrido[2′,3′:4,5]py-rimido[1,2-a]indol-9-yl)hex-5-enyl acetate] here?
Its minimal effective concentration is ≤ 1.5 µM.

With `O=C1c2cc(C(F)(F)F)ccc2-n2c1nc1ncccc1c2=O` [Compound 1034, 9-(trifluoromethyl)pyrido[2′, 3′:4,5]pyrimido[1,2-a]indole-5,11-dione] as the compound, how does the minimal effective concentration read?
Its minimal effective concentration is ≥ 5 µM.
